One data set concerns Apis mellifera. To be noted: acute, mortality.
The next data set concerns Bibionidae. The settings on record: chronic/long-term; duration: 28 days; other.
The subject of the next data set is Folsomia candida. The settings on record: chronic/long-term; duration: 4 weeks; reproduction.
In the next data set the test system is Tagia sp. The settings on record: mortality.
The next data set concerns Mus musculus. The settings on record: acute; oral; mortality.
A further data set has as its system Oryctolagus sp. The settings on record: developmental; development.

For the molecule `O=S(=O)(O)O.Oc1cccc2cccnc12.Oc1cccc2cccnc12` [8-Hydroxyquinoline sulfate], the LD50 was > 100 µg/piece in the data set on Apis mellifera (dermal) and > 68.6 µg/piece in the data set on Apis mellifera (oral, unspecified). In addition, the NOEC in the data set with Bibionidae amounted to 167 mg/L; in the data set on Folsomia candida, 52.4 mg/kg; with Oncorhynchus mykiss (chronic/long-term, duration: 28 days, development) it was 10.5 µg/L; with Tagia sp. (chronic/long-term), 417 mg/kg. In addition, the LC50 was 2.68 µg/mL in the data set on Oncorhynchus mykiss (acute, duration: 96 hours, mortality) and > 409 mg/kg with Tagia sp. (acute, duration: 14 days).

Regarding `Oc1cccc2cccnc12` [8-Hydroxyquinoline], the LD50 in the data set on Coturnix japonica (acute, oral, diet, mortality) was > 1070 mg/kg-day; in the data set on Mus musculus it was 177 mg/kg-day. The LC50 with Coturnix japonica (acute, oral, mortality) came out at 311 mg/kg-day. The NOAEL (as a rule, the highest tested level that showed no adverse finding) worked out at 2.78 mg/kg-day in the data set with Coturnix japonica (chronic); 5 mg/kg-day in the data set with Oryctolagus sp.; 73 mg/kg-day in the data set with Rattus norvegicus (chronic, duration: 2 years, body weight); 97.7 mg/kg-day in the data set with Rattus norvegicus (subchronic, duration: 90 days, oral, hematological).

The values are drawn from EPA's ToxValDB 9.5 (doi:10.2903/j.efsa.2016.4493).
